Reference: publication PMC11036874, “In vitro characterization of [^125I]HY-3-24, a selective ligand for the dopamine D3 receptor” (Frontiers in Neuroscience, 2024)
Entries after “also recorded” stand apart in the source; their conditions may differ.

Experiments:
sigma-2 = biological target: T1, sigma-2 (Rattus norvegicus, UniProt Q5U3Y7); experiment: Sigma-2 binding assay with [125I]RHM4; conditions: [125I]RHM4, rat liver homogenates
T1 construct: rat liver homogenates (15 μg/100 μL); from tissue; host or cells: rat liver homogenates
T1 sequence (Q5U3Y7 whole entry): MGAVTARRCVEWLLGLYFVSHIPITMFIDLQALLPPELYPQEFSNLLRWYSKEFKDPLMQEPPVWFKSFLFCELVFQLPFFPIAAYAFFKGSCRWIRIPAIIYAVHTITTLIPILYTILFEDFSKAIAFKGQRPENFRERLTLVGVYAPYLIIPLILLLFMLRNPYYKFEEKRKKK
Protocol: For sigma-2 binding assay, HY-3-24 prepared in 10^−5 to 10^−11 M concentration range was mixed with [^125I]RHM4 (50 μL,~200,000 cpm) and rat liver homogenates (15 μg/100 μL). The mixture was vortexed briefly and incubated at room temperature (RT) for 90 min. The [^125I]RHM4-bound membrane was collected through Whatman CF/C filters by 24-well harvester (Brandel Inc., Maryland, United States), and washed with 4 mL of cold buffer. The filters were counted on a gamma counter (PerkinElmer, Massachusetts, United States). Cold RHM4 was used for defining non-specific binding. The Ki value was obtained by PRISM 9.

human D3R [1] = biological target: T2, human D3R (Homo sapiens, UniProt P35462); experiment: β-arrestin recruitment assay for D3R; assay type: cell-based; design: expressed in transfected cells
T2 sequence (P35462 whole entry): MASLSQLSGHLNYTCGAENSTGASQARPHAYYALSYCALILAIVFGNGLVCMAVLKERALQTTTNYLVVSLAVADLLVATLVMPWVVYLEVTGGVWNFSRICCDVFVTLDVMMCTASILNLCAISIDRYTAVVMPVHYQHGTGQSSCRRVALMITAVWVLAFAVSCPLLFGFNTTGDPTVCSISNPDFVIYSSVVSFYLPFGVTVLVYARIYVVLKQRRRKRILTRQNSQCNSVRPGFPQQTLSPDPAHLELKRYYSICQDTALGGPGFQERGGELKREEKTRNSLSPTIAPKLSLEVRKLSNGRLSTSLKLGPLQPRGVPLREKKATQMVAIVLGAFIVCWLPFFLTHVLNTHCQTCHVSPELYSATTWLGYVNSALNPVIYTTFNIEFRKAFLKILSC
Protocol: Chinese hamster ovary CHO-K1 cells (CHO-K1) which were over expressed human D3R were cultured in assaycomplete™ cell culture kit 107 (DiscoverX, Fremont, CA, United States). Cells were seeded at a density of 25,000 cells per well of 96-well plate, and incubated at 5% CO2, 37°C. After 46 h, HY-3-24 was (10^−5 to 10^−11) in phosphate-buffered saline (PBS) was added to the cells. The plates were incubated for 30 min at 5% CO2, 37°C for the agonist binding assay; for the antagonist assay, cells were treated with 30 nM (EC80) of dopamine and then the mixture was incubated for 90 min. PathHunter™ β-arrestin recruitment assay kit (DiscoverX, Fremont, CA, United States) was added to each well, and the plate was incubated for 80 min at RT under the dark condition. The chemiluminescent signal was measured on a PerkinElmer Enspire plate reader (PerkinElmer, Boston, MA, United States). Data were analyzed by Prism followed by non-linear regression.

human D4 = biological target: T3, human D4 (Homo sapiens, UniProt P21917); experiment: D4R radioligand binding assay with [125I]IABN; conditions: human D4 transfected HEK293 cell membranes, mean ± SEM of three experiments
T3 construct: expressed in transfected cells; host or cells: HEK293
T3 sequence (P21917 whole entry): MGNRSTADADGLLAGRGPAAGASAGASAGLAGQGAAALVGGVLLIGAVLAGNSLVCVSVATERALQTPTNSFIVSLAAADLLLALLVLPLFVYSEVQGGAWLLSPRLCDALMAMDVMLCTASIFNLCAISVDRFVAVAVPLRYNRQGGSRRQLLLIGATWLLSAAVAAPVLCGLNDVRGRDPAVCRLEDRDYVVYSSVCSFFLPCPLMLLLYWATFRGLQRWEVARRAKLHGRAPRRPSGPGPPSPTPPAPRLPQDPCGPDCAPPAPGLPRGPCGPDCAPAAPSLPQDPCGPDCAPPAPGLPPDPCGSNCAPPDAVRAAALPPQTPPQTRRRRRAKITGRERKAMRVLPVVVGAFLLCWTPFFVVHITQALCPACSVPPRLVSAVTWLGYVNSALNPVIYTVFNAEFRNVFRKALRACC
Protocol: (§1) The dopamine receptor binding assay was performed according to previous studies ([Luedtke et al., 2000]; [Vangveravong et al., 2006]; [Reilly et al., 2017]), and human D2R or D3R or D4 transfected HEK293 cells were used for dopamine receptor binding assay. The cells were grown in Dulbecco’s Modified Eagle Medium including 10% FBS, 0.1% Penn Strep, […] of geneticin (G418) for human D2R or D3R transfected HEK293 cells, and […] of puromycin for human D4 HEK293 cells at 5% CO2, 37°C. The cells were collected by centrifuge (6,000 × g, 10 min), and the supernatant was discarded. Cold homogenization buffer (50 mM Na Hepes, 0.1 mM EDTA, 1 mM DTT, pH 7.4) was added into the pellet and homogenized by a polytron (Brinkmann Instruments, Westbury, NY, United States), and centrifuged at 40,000 × g for 10 min. This process was repeated two more times to get final pellet, and the membranes were then resuspended with HB buffer including 5 mM MgCl2 and stored at −80°C until use.
HY-3-24 was prepared in 10^−5 to 10^−11 M concentration range with assay buffer (50 mM Tris–HCl, 150 mM NaCl, 10 mM EDTA, pH 7.5). […] The membrane was washed with cold buffer (three times), and collected filters were counted on a gamma counter (GMI, Minnesota, United States). The results were analyzed by nonlinear regression, and the data were reported mean ± SEM values by three independent experiments.

sigma-1 = biological target: T4, sigma-1 (Cavia porcellus, UniProt Q60492); experiment: Sigma-1 binding assay with [3H]-(+)-pentazocine; conditions: guinea pig brain homogenates
T4 construct: from tissue; host or cells: guinea pig brain homogenates
T4 sequence (Q60492 whole entry): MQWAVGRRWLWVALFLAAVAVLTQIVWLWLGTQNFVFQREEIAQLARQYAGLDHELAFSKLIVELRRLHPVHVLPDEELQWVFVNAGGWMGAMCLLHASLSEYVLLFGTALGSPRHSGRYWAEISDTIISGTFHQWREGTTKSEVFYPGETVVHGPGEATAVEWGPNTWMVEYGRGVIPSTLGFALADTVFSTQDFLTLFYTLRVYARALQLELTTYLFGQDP
Protocol: The preparation of protein homogenates and sigma binding assay were conducted as described previously ([Luedtke et al., 2000]). For sigma-1 binding assay, [^3H]-(+)-pentazocine (50 μL, ~50,000 cpm) and HY-3-24 (concentrations ranging from 10^−5 to 10^−11 M) were mixed, guinea pig brain homogenates (100 μg/100 μL) were added and the mixture was incubated at 5% CO2, 37°C for 90 min. The assay was terminated by adding cold buffer (10 mM Tris–HCl, 150 mM NaCl, pH 7.5), and the mixture was filtered htrough Whatman CF/C filters (Brandel Inc., Maryland, United States) which were soaked in 1% polyethyleneimine (PEI). The collected filter was washed three times using cold buffer; non-specific binding was determined in the presence of 10 μM of haloperidol. The collected filters were mixed with 3 mL of microscint™20 by and counted overnight (1 min/well) using a beta counter (MicroBeta^2®, PerkinElmer, United Kingdom). The data were analyzed using PRISM 9.

human D3R [2] = biological target: T2, human D3R; experiment: D3R radioligand binding assay with [125I]IABN; design: expressed in transfected cells; host or cells: HEK293
Protocol: as §1
HY-3-24 was prepared in 10^−5 to 10^−11 M concentration range with assay buffer (50 mM Tris–HCl, 150 mM NaCl, 10 mM EDTA, pH 7.5). Membrane homogenates (5–15 μg) and [^125I]IABN (approximately 0.5 nM) was added into serial dilutions of the compound and incubated at 37°C, for 60 min. Total binding volume was 150 μL, and 20 μM of (+)-butaclamol was used to define non-specific binding. Cold buffer (10 mM Tris–HCl, 150 mM NaCl, pH 7.5) was added into the reaction tube to terminate binding assay, and mixture was quickly filtered through a Schleicher and Schuell No.32 filter (GE Heathcare Bio-Sciences, Pittsburgh, PA, United States). The membrane was washed with cold buffer (three times), and collected filters were counted on a gamma counter (GMI, Minnesota, United States). The results were analyzed by nonlinear regression, and the data were reported mean ± SEM values by three independent experiments.

serotonin 5-HT2B = serotonin 5-HT2B (Homo sapiens, UniProt P41595); experiment: PDSP binding screen; conditions: HCl salt
serotonin 5-HT2B, sequence (P41595 whole entry): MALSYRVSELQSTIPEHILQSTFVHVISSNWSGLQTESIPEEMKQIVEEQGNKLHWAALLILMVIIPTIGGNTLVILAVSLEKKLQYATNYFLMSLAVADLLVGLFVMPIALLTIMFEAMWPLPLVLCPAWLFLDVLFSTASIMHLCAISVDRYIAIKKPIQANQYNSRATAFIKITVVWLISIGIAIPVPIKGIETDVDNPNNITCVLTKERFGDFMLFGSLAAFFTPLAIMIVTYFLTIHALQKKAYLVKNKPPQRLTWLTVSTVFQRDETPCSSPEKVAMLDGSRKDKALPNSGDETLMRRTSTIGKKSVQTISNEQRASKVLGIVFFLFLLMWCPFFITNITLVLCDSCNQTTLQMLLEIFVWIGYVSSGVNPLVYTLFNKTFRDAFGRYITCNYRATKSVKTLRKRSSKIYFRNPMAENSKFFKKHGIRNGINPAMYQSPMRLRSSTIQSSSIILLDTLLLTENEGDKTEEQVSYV
Text: (§2) The binding of HY-3-24 to various GPCRs was investigated through comprehensive screening by Psychoactive Drug Screening Program (PDSP) (Supplementary Table S1) ([Besnard et al., 2012]). These GPCRs included major neurotransmitter receptors family (e.g., dopamine, serotonin, histamine, opioid, muscarinic, adrenergic, sigma receptors, ɤ-amino-butyric acid type A, and benzodiazepine receptors) and transporters (e.g., dopamine, norepinephrine, and serotonin transporter).

sigma2 = biological target: T5, sigma2 (Homo sapiens, UniProt Q5BJF2); experiment: PDSP binding screen; conditions: HCl salt
T5 construct: Psychoactive Drug Screening Program (PDSP)
T5 sequence (Q5BJF2 whole entry): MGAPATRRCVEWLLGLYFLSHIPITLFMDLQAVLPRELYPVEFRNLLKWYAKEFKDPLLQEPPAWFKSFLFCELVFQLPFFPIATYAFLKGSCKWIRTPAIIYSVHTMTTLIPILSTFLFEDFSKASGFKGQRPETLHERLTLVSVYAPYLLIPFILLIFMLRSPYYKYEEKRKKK
Text: as §2

dopamine D3 = dopamine D3 (Homo sapiens, UniProt P35462); experiment: PDSP binding screen; conditions: HCl salt, [3H]N-methylspiperone
dopamine D3, sequence (P35462 whole entry): as the sequence (P35462 whole entry) above
Text: as §2

[3] = [125I]IABN, human D3R transfected HEK293 cell membranes, mean ± SEM of three experiments

Compound: CCN(CCCNC(=O)c1ccc(-c2ccncc2)cc1)CCNC(=O)c1cc(I)cc(OC)c1OC [HY-3-24, N-(2-(Ethyl(3-(4-(pyridin-4-yl)benzamido)propyl)amino)ethyl)-5-iodo-2,3-dimethoxybenzamide]
- binding to sigma-2 receptors (sigma-2): did not bind
- binding to sigma-2 receptors (sigma-2; listed as HY-2-34): low affinity
- EC50 β-arrestin recruitment D3R (human D3R [1]; agonist mode, 10^-5 to 10^-11 M, human D3R CHO-K1 cells): no β-arrestin recruitment; also recorded: N.A (not active)
- IC50 (human D3R [1]; antagonist mode, vs 30 nM (EC80) dopamine, human D3R CHO-K1 cells): 1.5 ± 0.58 nM
- functional mode at D3R (human D3R [1]; β-arrestin recruitment assay): antagonist
- Ki (human D4): > 1000 nM
- Ki D4R (human D4; listed as HY-2-34): negligible
- binding to sigma-1 receptors (sigma-1): did not bind
- binding to sigma-1 receptors (sigma-1; listed as HY-2-34): low affinity
- Ki (human D3R [2]; [3]): 0.67 ± 0.11 nM
- Ki D3R (human D3R [2]; [3]): sub-nM affinity
- selectivity for D3R vs. D2R (human D3R [2]; from Ki values, [125I]IABN): ~ 129 fold
- D2/D3 ratio (human D3R [2]; ratio of Ki D2R to Ki D3R): 129
- Ki (serotonin 5-HT2B): 38 nM
- Ki (sigma2): 2310 nM
- Ki (dopamine D3): 1.2 nM
